The values that follow come from patent US20210387966A1, “2-AMINO-N-HETEROARYL-NICOTINAMIDES AS NAV1.8 INHIBITORS” (Merck Sharp & Dohme Corp., priority 2018, published 2021).

T1 sequence (Q9Y5Y9 whole entry): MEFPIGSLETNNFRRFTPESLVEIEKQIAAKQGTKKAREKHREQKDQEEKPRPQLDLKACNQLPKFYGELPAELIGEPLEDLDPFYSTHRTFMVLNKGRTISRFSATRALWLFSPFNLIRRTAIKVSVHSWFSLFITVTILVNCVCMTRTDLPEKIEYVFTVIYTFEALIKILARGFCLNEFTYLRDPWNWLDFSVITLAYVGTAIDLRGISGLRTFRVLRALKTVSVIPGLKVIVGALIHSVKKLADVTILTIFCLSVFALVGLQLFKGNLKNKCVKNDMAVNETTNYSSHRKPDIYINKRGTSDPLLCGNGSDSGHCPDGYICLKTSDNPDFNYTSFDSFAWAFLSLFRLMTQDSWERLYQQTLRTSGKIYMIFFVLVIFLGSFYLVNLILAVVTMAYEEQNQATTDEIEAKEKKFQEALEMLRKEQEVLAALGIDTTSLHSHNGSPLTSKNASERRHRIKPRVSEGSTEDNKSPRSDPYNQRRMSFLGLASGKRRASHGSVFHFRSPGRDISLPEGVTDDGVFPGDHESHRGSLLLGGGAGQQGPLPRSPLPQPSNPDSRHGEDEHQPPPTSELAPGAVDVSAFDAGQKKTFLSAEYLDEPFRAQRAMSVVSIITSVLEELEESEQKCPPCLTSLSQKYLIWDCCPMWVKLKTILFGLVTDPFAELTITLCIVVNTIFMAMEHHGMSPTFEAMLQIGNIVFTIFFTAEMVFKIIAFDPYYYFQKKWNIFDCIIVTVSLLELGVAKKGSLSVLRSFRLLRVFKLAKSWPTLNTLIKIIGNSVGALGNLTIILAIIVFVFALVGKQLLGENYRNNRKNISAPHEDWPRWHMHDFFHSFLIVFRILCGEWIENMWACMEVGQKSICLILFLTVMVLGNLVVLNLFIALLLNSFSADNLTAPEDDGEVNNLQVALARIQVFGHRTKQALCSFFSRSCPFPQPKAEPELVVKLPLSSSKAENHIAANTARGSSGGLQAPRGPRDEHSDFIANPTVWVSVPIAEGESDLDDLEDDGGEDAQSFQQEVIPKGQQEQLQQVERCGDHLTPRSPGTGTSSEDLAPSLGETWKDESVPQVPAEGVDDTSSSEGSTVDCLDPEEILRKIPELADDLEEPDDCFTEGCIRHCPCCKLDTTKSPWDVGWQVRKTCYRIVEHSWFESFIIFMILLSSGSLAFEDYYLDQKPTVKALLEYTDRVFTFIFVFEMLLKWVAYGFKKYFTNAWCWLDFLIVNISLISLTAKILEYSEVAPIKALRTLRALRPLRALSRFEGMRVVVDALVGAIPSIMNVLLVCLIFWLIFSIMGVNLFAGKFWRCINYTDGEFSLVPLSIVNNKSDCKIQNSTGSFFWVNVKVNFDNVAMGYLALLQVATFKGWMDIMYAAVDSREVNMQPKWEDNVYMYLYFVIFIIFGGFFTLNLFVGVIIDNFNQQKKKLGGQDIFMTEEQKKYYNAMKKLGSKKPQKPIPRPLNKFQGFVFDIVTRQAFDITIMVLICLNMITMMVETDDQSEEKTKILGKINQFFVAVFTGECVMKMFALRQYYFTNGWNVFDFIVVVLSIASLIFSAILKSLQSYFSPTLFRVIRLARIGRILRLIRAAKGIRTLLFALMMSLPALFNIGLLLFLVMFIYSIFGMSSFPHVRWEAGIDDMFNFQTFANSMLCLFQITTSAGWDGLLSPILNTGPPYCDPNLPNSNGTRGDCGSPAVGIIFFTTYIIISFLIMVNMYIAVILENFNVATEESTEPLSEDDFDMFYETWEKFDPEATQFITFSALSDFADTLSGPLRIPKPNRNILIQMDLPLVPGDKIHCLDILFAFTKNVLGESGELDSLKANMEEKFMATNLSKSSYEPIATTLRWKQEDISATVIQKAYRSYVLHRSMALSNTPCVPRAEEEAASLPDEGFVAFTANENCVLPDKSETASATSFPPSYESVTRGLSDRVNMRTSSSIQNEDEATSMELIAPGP

The experiment addresses T1, human Nav1.8 channels (Homo sapiens, UniProt Q9Y5Y9).
T1 construct: expressed in transfected cells
In words: Nav1.8 Qube automated patch-clamp assay. The conditions noted are these: human Nav1.8 stably expressed in HEK 293 cells; whole-cell voltage clamp, room temperature; resting or inactivated state not specified; read-out: IC50 values (nM) for Examples in the Nav1.8 Qube Assay. It counts as cell-based. How it is done: Compounds were tested on human Nav1.8 and Nav1.5 channels stably expressed in human embryo kidney (HEK) 293 cells. Sodium current measurements on Qube® were conducted as follows: automated 384-well patch-clamp assays on the Qube® platform (Sophion Biosciences) were used to measure the inhibition of sodium flow through human Nav1.8 and Nav1.5 channels. Whole-cell voltage-clamp recordings were performed in QChips® (Sophion Biosciences) at room temperature. Nav1.8 current measurements on Qube® were obtained as follows: Nav1.8 currents were elicited with a 10 second 1 Hertz (Hz) pulse train from a holding potential of −90 millivolts (mV), delivered to the cells once per minute in the control condition (DMSO only) and after compound addition. The 1 hertz pulse train stimulation consisted of ten test pulses to 10 millivolt (mV) for 20 milliseconds (ms), each of which was followed by a 980 millisecond repolarization to −67 millivolts. At the end of the 10 second pulse train stimulation, a second hyperpolarization step to −100 millivolt (mV) was used to recover Nav1.8 from fast inactivation. The peak currents elicited by the 1st and 10th test pulses were used to determine IC50 values for resting inhibition and inactivated state inhibition. Nav1.5 current measurements on Qube® were obtained as follows: Nav1.5 currents were elicited with a 20 second 3 Hertz pulse train in the control condition (DMSO only) and after compound addition. The pulse train consisted of sixty 20 millisecond test pulses to 0 millivolt from a holding potential of −80 millivolt (mV). The average peak currents elicited by the last 3 test pulses were used to determine IC50 values for Nav1.5 inhibition.
The following buffers were used for the Qube® recordings: External buffer for Nav1.8 Qube® recording: 150 NaCl, 2 CaCl2, 5 KCl, 1 Mg Cl2, 10 HEPES, 12 Dextrose; External buffer for Qube® Nav1.5 recording: 120 N-Methyl-D-Glucamine, 40 NaCl, 1 KCl, 2.7 CaCl2, 5 HEPES, 0.5 MgCl2: and Internal buffer for Qube® recording: 120 CsF, 30 CsCl, 10 EGTA, 5 HEPES, 5 NaF, 2 MgCl2.
For all Qube® experiments offline analysis was used to determine percent inhibition as a function of drug concentration. IC50 values were determined by fitting to the Hill equation.
On the technique in general: In patch-clamp work, channel activity is measured electrically.
The term IC50 denotes the concentration that inhibits the measured activity by half. Consider `O=C(O)c1cc(NC(=O)c2cc(C(F)(F)F)cnc2N2CCC(F)(F)CC2)ccn1` [Example 4, 4-(2-(4,4-difluoropiperidin-1-yl)-5-(trifluoromethyl)nicotinamido)picolinic acid], for which the half-maximal inhibitory concentration (IC50) is 5430 nM. Turning to `N#Cc1ccc(NC(=O)c2cc(C(F)(F)F)cnc2N2CCC(F)(F)CC2)cn1` [Example 5, N-(6-cyanopyridin-3-yl)-2-(4,4-difluoropiperidin-1-yl)-5-(trifluoromethyl)nicotinamide], the IC50 was 820 nM. With `CS(=O)(=O)c1cncc(NC(=O)c2cc(C(F)(F)F)cnc2N2CCCCCC2)c1` [Example 6, 2-(azepan-1-yl)-N-(5-(methylsulfonyl)pyridin-3-yl)-5-(trifluoromethyl)nicotinamide], the IC50 stood at 355 nM. To `NS(=O)(=O)c1cc(NC(=O)c2cc(C(F)(F)F)cnc2N2CCCC(CO)C2)ccn1` (centres unmarked) [Example 7, 2-(3-(hydroxymethyl)piperidin-1-yl)-N-(2-sulfamoylpyridin-4-yl)-5-(trifluoromethyl)nicotinamide] belongs 2830 nM; to `NC(=O)c1cncc(NC(=O)c2cc(C(F)(F)F)cnc2N2CCCCCC2)c1` [Example 8, 2-(azepan-1-yl)-N-(5-carbamoylpyridin-3-yl)-5-(trifluoromethyl)nicotinamide], 2350 nM. Next, `Cc1ccc(C(=O)Nc2cncc(S(N)(=O)=O)c2)c(N2CCC(F)(F)CC2)n1` [Example 9, 2-(4,4-difluoro-1-piperidyl)-6-methyl-N-(5-sulfamoyl-3-pyridyl)pyridine-3-carboxamide]: 816 nM. To `NS(=O)(=O)c1cncc(NC(=O)c2cc(Cl)cnc2N2CCC(F)(F)CC2)c1` [Example 10, 5-chloro-2-(4,4-difluoro-1-piperidyl)-N-(5-sulfamoyl-3-pyridyl)pyridine-3-carboxamide] belongs 174 nM; to `Cc1cc(Cl)nc(N2CCC(F)(F)CC2)c1C(=O)Nc1cncc(S(N)(=O)=O)c1` [Example 11, 6-chloro-2-(4,4-difluoropiperidin-1-yl)-4-methyl-N-(5-sulfamoylpyridin-3-yl)nicotinamide], 212 nM. Turning to `NS(=O)(=O)c1cc(NC(=O)c2cc(C3CC3)c(C3CC3)nc2N2CCC(F)(F)CC2)ccn1` [Example 12, 5,6-dicyclopropyl-2-(4,4-difluoropiperidin-1-yl)-N-(2-sulfamoylpyridin-4-yl)nicotinamide], the IC50 was found to be 94 nM. Turning to `Cc1nc(N2CCC(F)(F)CC2)c(C(=O)Nc2ccnc(S(N)(=O)=O)c2)cc1C1CC1` [Example 14, 5-cyclopropyl-2-(4,4-difluoropiperidin-1-yl)-6-methyl-N-(2-sulfamoylpyridin-4-yl)nicotinamide], the IC50 was determined as 45 nM. Next, `NS(=O)(=O)c1cc(NC(=O)c2cc(C3CC3)c(OCC(F)(F)F)nc2N2CCC(F)(F)CC2)ccn1` [Example 20, 5-cyclopropyl-2-(4,4-difluoropiperidin-1-yl)-N-(2-sulfamoylpyridin-4-yl)-6-(2,2,2-trifluoroethoxy)nicotinamide]: 67 nM; `NS(=O)(=O)c1cc(NC(=O)c2ccc(C3CCC3)nc2N2CCCC(F)(F)CC2)ccn1` [Example 24, 6-cyclobutyl-2-(4,4-difluoroazepan-1-yl)-N-(2-sulfamoylpyridin-4-yl)nicotinamide]: 2.1 nM.

For `Cc1nc(N2CCCC(F)(F)CC2)c(C(=O)Nc2ccnc(S(N)(=O)=O)c2)cc1C#N` [Example 25, 5-cyano-2-(4,4-difluoroazepan-1-yl)-6-methyl-N-(2-sulfamoylpyridin-4-yl)nicotinamide], the 50% inhibitory concentration (IC50) was found to be 5.4 nM. Take `NS(=O)(=O)c1cc(NC(=O)c2cccnc2N2CCC(F)(F)CC2)ccn1` [Example 26, 2-(4,4-difluoropiperidin-1-yl)-N-(2-sulfamoylpyridin-4-yl)nicotinamide]: the IC50 turned out to be 1860 nM. To `O=C(Nc1cc[nH]c(=O)c1)c1cc(Cl)c(C2CC2)nc1N1CCCC(F)(F)CC1` [Example 27, 5-chloro-6-cyclopropyl-2-(4,4-difluoroazepan-1-yl)-N-(2-oxo-1,2-dihydropyridin-4-yl)nicotinamide] belongs 31 nM. Next, `NS(=O)(=O)c1cc(NC(=O)c2cc(C(F)(F)F)cnc2N2CCC(F)(F)CCC2=O)ccn1` [Example 28, 2-(5,5-Difluoro-2-oxoazepan-1-yl)-N-(2-sulfamoylpyridin-4-yl)-5-(trifluoromethyl)nicotinamide]: 1300 nM; `NS(=O)(=O)c1cc(NC(=O)c2cc(C(F)(F)F)cnc2N2CCC(Cl)(Cl)CC2)ccn1` [Example 29, 2-(4,4-Dichloropiperidin-1-yl)-N-(2-sulfamoylpyridin-4-yl)-5-(trifluoromethyl)nicotinamide]: 31 nM; `CS(=O)(=O)n1cc(NC(=O)c2cc(C(F)(F)F)cnc2N2CCCC(F)(F)CC2)c2cccnc21` [Example 30, 2-(4,4-difluoroazepan-1-yl)-N-[1-(methylsulfonyl)-1H-pyrrolo[2,3-b]pyridin-3-yl]-5-(trifluoromethyl)pyridine-3-carboxamide]: 4 nM. Next, `Cc1nc(N2CCCC(F)(F)CC2)c(C(=O)Nc2cnn(S(C)(=O)=O)c2)cc1Cl` [Example 31, 5-chloro-2-(4,4-difluoroazepan-1-yl)-6-methyl-N-[1-(methylsulfonyl)-1H-pyrazol-4-yl]pyridine-3-carboxamide]: 4.1 nM.

Consider `Cc1nc(N2CCCC(F)(F)CC2)c(C(=O)Nc2cnn(S(C)(=O)=O)c2)c(C)c1Cl` [Example 32, 5-chloro-2-(4,4-difluoroazepan-1-yl)-4,6-dimethyl-N-[1-(methylsulfonyl)-1H-pyrazol-4-yl]pyridine-3-carboxamide], for which the IC50 was 4.3 nM. Turning to `Cc1nc(N2CCCC(F)(F)CC2)c(C(=O)Nc2cnn(S(=O)(=O)CCN)c2)cc1Cl` [Example 33, N-{1-[(2-aminoethyl)sulfonyl]-1H-pyrazol-4-yl}-5-chloro-2-(4,4-difluoroazepan-1-yl)-6-methylpyridine-3-carboxamide], the IC50 amounted to 35 nM. Next, `CS(=O)(=O)n1nc(NC(=O)c2cc(C(F)(F)F)cnc2N2CCCC(F)(F)CC2)c2ccccc21` [Example 34, 2-(4,4-difluoroazepan-1-yl)-N-[1-(methylsulfonyl)-1H-indazol-3-yl]-5-(trifluoromethyl)pyridine-3-carboxamide]: 50 nM; `CS(=O)(=O)n1ncc(NC(=O)c2cc(C(F)(F)F)cnc2N2CCCC(F)(F)CC2)c1C1CC1` [Example 37, N-[5-cyclopropyl-1-(methylsulfonyl)-1H-pyrazol-4-yl]-2-(4,4-difluoroazepan-1-yl)-5-(trifluoromethyl)pyridin-3-carboxamide]: 1250 nM. To `NS(=O)(=O)c1cc(NC(=O)c2cnc(C3CC3)nc2N2CCCC(F)(F)CC2)ccn1` [Example 38, 2-cyclopropyl-4-(4,4-difluoroazepan-1-yl)-N-(2-sulfamoylpyridin-4-yl)pyrimidine-5-carboxamide] belongs 24 nM; to `NS(=O)(=O)c1cc(NC(=O)c2cc(C3CC3)nnc2N2CCCC(F)(F)CC2)ccn1` [Example 39, 6-cyclopropyl-3-(4,4-difluoroazepan-1-yl)-N-(2-sulfamoylpyridin-4-yl)pyridazine-4-carboxamide], 441 nM. Take `Cc1ccc(C(=O)Nc2ccnc(S(N)(=O)=O)c2)c(N2CCCC(F)(F)C(F)C2)n1` (centres unmarked) [Example 40, 6-methyl-N-(2-sulfamoylpyridin-4-yl)-2-(3,4,4-trifluoroazepan-1-yl)nicotinamide]: the IC50 turned out to be 4.1 nM.

`COc1nc(N2CCCC(F)(F)CC2)c(C(=O)Nc2ccnc(S(N)(=O)=O)c2)cc1Cl` [Example 41, 5-chloro-2-(4,4-difluoroazepan-1-yl)-6-methoxy-N-(2-sulfamoylpyridin-4-yl)pyridine-3-carboxamide]: the IC50 was 5.1 nM. To `COc1nc(N2CCCC(F)(F)CC2)c(C(=O)Nc2ccnc(S(=O)(=O)NC(C)(C)C)c2)cc1Cl` [Example 42, N-[2-(tert-butylsulfamoyl)pyridin-4-yl]-5-chloro-2-(4,4-difluoroazepan-1-yl)-6-methoxypyridine-3-carboxamide] belongs 341 nM; to `N#Cc1cc(C(=O)Nc2ccnc(S(N)(=O)=O)c2)c(N2CCC(F)(F)CC2)nc1C(F)(F)F` [Example 43, 5-cyano-2-(4,4-difluoropiperidin-1-yl)-N-(2-sulfamoylpyridin-4-yl)-6-(trifluoromethyl)nicotinamide], 37 nM.
